The values that follow come from patent US20100210597A1, “C21-Deoxy Ansamycin Derivatives as Antitumor Agents” (priority 2007, published 2010).

Data set [1] in a line: Solubility assay in 2% DMSO in PBS. Type of data set: physicochemical. To be noted: 2% DMSO in PBS pH 7.3, 0.5 mM, shaken up to six hours. As for the experimental part:
To analyse the solubilities of 17-AAG, geldanamycin, 18,21-dihydromacbecin and macbecin, solutions (25 mM) of the test compounds were prepared by dissolving 3-5 mg aliquots in the appropriate amount of DMSO.
Aliquots (0.01 mL) were added to 0.490 mL of pH 7.3 PBS in glass vials. For each time point, 3 PBS vials were prepared in amber glass vials. For the six hour time point triplicate aliquots in DMSO were also prepared.
The resulting 0.5 mM solutions were shaken for up to six hours, with vials removed for analysis at 1, 3 and 6 hours. Samples were analysed by HPLC (0.025 mL injections). Compounds were quantified by peak area measurement at 274 nm.
Solubility in 2% DMSO in PBS at each time point was determined by comparing total peak areas for each chromatogram with mean total peak area for chromatograms produced from the corresponding 6 hour DMSO solutions. (Mean total peak area in DMSO solutions was assumed to be equivalent to a 0.5 mM solution). The solubility of compound 17 was measured by a thermodynamic assay as described in the general methods.

The nature of data set [2]: Aqueous solubility by direct dissolution. Type of data set: physicochemical. To be noted: pH 4.5, aqueous buffer, aqueous 5 mM citrate, pH 4.5; limit not tested. The text has this:
It is not possible to measure the solubility of 20 and 23 by this method due to their intrinsic high aqueous solubility.

The nature of data set [3]: In vitro cleavage assay in buffer. Type of data set: physicochemical. The following applies: for half-life at 0.1 mg/ml: read-out: half-life of disappearance (converted). As for the experimental part: Samples were monitored by LC-UV, on an Agilent 1100 HPLC. Chromatography was achieved over a Phenomenex Hyperclone column, BDS C18 3 u (150×4.6 mm):
Mobile phase A: 0.1% Formic acid in water Mobile phase B: 0.1% Formic acid in acetonitrile Flow rate: 1 mL/minute: Gradient, t=0 mins, B=10%; t=2 mins, B=10%; t=20 mins, B=100%.
Compound 23 elutes at 12.1 mins and compound 17 elutes at 11.2 minutes in these conditions.
0.05 ml injections were made, repeatedly from the same sample every 3.18 hours, for 50 hours. the ambient temperature was 23 degrees C. The UV response was measured for each time point for compound 23 and 17. The half-life of disappearance of compound 23 was calculated thus:
the natural logarithm of the response was plotted with respect to time (in hours). The slope and fit of the resultant line was calculated and the half life, t1/2=(In 2)/lambda. Where lambda is the slope of the graph.

For a further data set, the target named is Hsp90 (Homo sapiens, UniProt P07900). The following applies: cited from earlier work.
The subject of data set [4] is panel of human tumour cell lines. Nature of the data set: Monolayer proliferation assay, mean across cell line panel. Type of data set: cell-based. The following applies: geometric mean of all replicates across six cell lines. The protocol:
In vitro evaluation of compounds for anticancer activity in a panel of human tumour cell lines in a monolayer proliferation assay was carried out at the Oncotest Testing Facility, Institute for Experimental Oncology, Oncotest GmbH, Freiburg.
The Oncotest cell lines are established from human tumor xenografts as described by Roth et al., (1999). The origin of the donor xenografts is described by Fiebig et al., (1999). Other cell lines are either obtained from the NCl (DU145, MCF-7) or purchased from DSMZ, Braunschweig, Germany.
All cell lines, unless otherwise specified, are grown at 37° C. in a humidified atmosphere (95% air, 5% CO2) in a ‘ready-mix’ medium containing RPMI 1640 medium, 10% fetal calf serum, and 0.1 mg/mL gentamicin (PAA, Cölbe, Germany).
A modified propidium iodide assay was used to assess the effects of the test compound(s) on the growth of six human tumour cell lines (Dengler et al., (1995)).
Briefly, cells are harvested from exponential phase cultures by trypsinization, counted and plated in 96 well flat-bottomed microtitre plates at a cell density dependent on the cell line (5-10.000 viable cells/well). […] After thawing the plates, fluorescence was measured using the Cytofluor 4000 microplate reader (excitation 530 nm, emission 620 nm), giving a direct relationship to the total number of viable cells.
Growth inhibition is expressed as treated/control×100 (% T/C). […]

≈ marks a conversion by molar mass, not a printed value. Where “and” joins values, the source holds several entries; their conditions need not be identical. Equal values may be shown once. Read-outs that look alike come from different tables or passages of the source. Some results are limits rather than exact numbers.

One may read the solubility as the concentration that dissolves in the medium under given conditions. Low readings indicate little dissolved substance, high ones much dissolved substance. `COC1CC(C)C(OC)c2cc(O)cc(c2O)NC(=O)/C(C)=C\C=C/C(C)C(OC(N)=O)/C(C)=C\C(C)C1OC` (stereo not drawn) [18,21-dihydromacbecin] showed a solubility in data set [1] of 136 µM (≈ 76.3 µg/mL).
The same measure, in the same setting: next, `C=CCNC1=C2C[C@@H](C)C[C@H](OC)[C@H](O)[C@@H](C)/C=C(\C)[C@H](OC(N)=O)[C@@H](OC)/C=C\C=C(/C)C(=O)NC(=CC1=O)C2=O` [Compound 17-AAG, 17-(allylamino)-17-desmethoxy geldanamycin]: 171 µM (≈ 100 µg/mL).
Broadly, the half-life is how long it takes for the measured level to halve. Regarding `CNCCN(C)C(=O)Oc1cc2cc(c1)NC(=O)/C(C)=C/CC[C@H](C)[C@@H](OC(N)=O)/C(C)=C/[C@H](C)[C@@H](O)[C@@H](OC)C[C@H](C)C2` [Compound 23, 18-O-(N,N′-dimethylethylenediaminecarbamoyl)-4,5-dihydro-11-O-demethyl-15-demethoxy-18,21-didehydro-18-hydroxy-21-deoxomacbecin], the solubility in data set [2] was ≥ 3000 µg/mL and ≥ 4600 µM. Also, the half-life of disappearance result in data set [3] (0.1 M potassium phosphate buffer pH 4.5, 23 degrees C) is “not calculable (zero slope)”. Also, the half-life at 0.1 mg/ml in data set [3] (0.1 M potassium phosphate buffer pH 5.9, 23 degrees C) was 69.3 h; in data set [3] (0.1 M potassium phosphate buffer pH 6.5, 23 degrees C) it was 11.9 h; in data set [3] (0.1 M potassium phosphate buffer pH 7.4, 23 degrees C), 2 h; in data set [3] (5% glucose, 23 degrees C), 32 h. The product of cleavage entry in data set [3] (by LC-UV-MS) was “compound 17”.
With `CO[C@H]1C[C@H](C)Cc2cc(O)cc(c2)NC(=O)/C=C/CC[C@H](OC)[C@@H](OC(N)=O)/C(C)=C/[C@H](C)[C@H]1O` [KOSN1559], the “binding affinity to Hsp90, greater than 17-AAG” value at Hsp90 (relative to 17-AAG) is given as 8 fold. For the same compound, the “binding affinity to Hsp90, greater than geldanamycin” value at Hsp90 (relative to geldanamycin) is given as 4 fold.
For `CO[C@H]1[C@@H](OC)C[C@H](C)[C@@H](OC)C2=CC(=O)C=C(NC(=O)/C(C)=C/C=C\[C@H](C)[C@@H](OC(N)=O)/C(C)=C/[C@@H]1C)C2=O` [macbecin, reference compound], the “average IC70 value across the cell-line panel” value in data set [4] was found to be 0.21 µg/mL.
